Measurements published in patent US5635379A, “D-2-alkyl-tryptophan and peptides containing same” (Deghenghi; Romano, priority 1990, dated 1997).
Square brackets hold non-standard residues; d marks the D form. Peptide text beside a SMILES is read from it. dTrp(2-Me) = Cc1[nH]c2ccccc2c1C[C@@H](N)C(=O)O

Test system: GH release
Assay: GH release in pentobarbital-anesthetized rats, s.c.
Format: in vivo, Sprague Dawley rats
Description: Male Sprague Dawley rats weighing 225-250 g were divided in groups of five animals each. Rats were anesthetized with Nembutal injected intraperiteonally at 50 mg/kg, fifteen minutes prior to the first blood withdrawal taken over heparin by cardiac puncture (for determination of basal GH).
Subcutaneous injections of either HEXARELIN or GHRP-6 were given immediately after the first blood collection, and additional blood samples were collected 15 and 40 minutes later.
Measurement of rat GH was performed by a standard double antibody radioimmunoassay with reagents supplied by the National Pituitary Agency and the National Institute of Arthritis, Diabetes, and Digestive and Kidney Diseases. The standards used were NIADDK-NIH-rGH-RP-2. Statistical data were obtained with the Student's t Test at a significance level of 5%.

For Cc1[nH]c2ccccc2c1C[C@@H](NC(=O)[C@@H](N)Cc1cnc[nH]1)C(=O)N[C@@H](C)C(=O)N[C@@H](Cc1c[nH]c2ccccc12)C(=O)N[C@H](Cc1ccccc1)C(=O)N[C@@H](CCCCN)C(N)=O [Example 4, His-D-2-methyl-Trp-Ala-Trp-D-Phe-Lys-NH2] (H-H[dTrp(2-Me)]AW[dF]K-NH2), the “POST-DRUG PLASMA GH” value (s.c. 10 μg/kg, 0 min (basal)) was 63 ± 58 ng/mL, the “POST-DRUG PLASMA GH” value (s.c. 10 μg/kg, 15 min) was 95 ± 44 ng/mL and the “POST-DRUG PLASMA GH” value (s.c. 10 μg/kg, 40 min) was 88 ± 29 ng/mL. The “POST-DRUG PLASMA GH” value (s.c. 25 μg/kg, 0 min (basal)) was 56 ± 21 ng/mL, the “POST-DRUG PLASMA GH” value (s.c. 25 μg/kg, 15 min) was 388 ± 99 ng/mL and the “POST-DRUG PLASMA GH” value (s.c. 25 μg/kg, 40 min) was 100 ± 51 ng/mL. The “POST-DRUG PLASMA GH” value (s.c. 50 μg/kg, 0 min (basal)) was 32 ± 16 ng/mL, the “POST-DRUG PLASMA GH” value (s.c. 50 μg/kg, 15 min) was 439 ± 69 ng/mL and the “POST-DRUG PLASMA GH” value (s.c. 50 μg/kg, 40 min) was 81 ± 13 ng/mL.
